Data from US20240409536A1, “COMPOUNDS AND METHODS FOR MODULATING SPLICING” (REMIX THERAPEUTICS INC., priority 2021, published 2024).
Structures can show the parent of a compound that is named as a salt.

Legend:
HiBiT-tagged HTT protein = test: HiBiT protein abundance assay, HTT (K562 HiBiT knock-in cells); assay type: cell-based, human; details: 24 hours
Summary of the method: (§1)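 K562 cells with endogenous HiBiT knock-in tag, 10-point 3-fold dilutions (top 10 μM final, ≤0.25% DMSO), 24 h at 37 °C. Lytic Nano-Glo HiBiT luminescence, normalized to DMSO and unmodified K562 baselines; IC50 is concentration giving 50% protein abundance from four-parameter fit.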

Target C mRNA = test: Gene panel canonical junction qPCR assay, Target C CJ mRNA decrease; assay type: cell-based; details: Homo sapiens, canonical junction qPCR, read-out: Target C IC50 (decrease in CJ mRNA levels)
Summary of the method: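 IC50 values describe loss of canonical-junction transcript, fitted by 4-parameter logistic to percent response derived from fixed ΔCt windows. Read-out: RT-qPCR on lysates of compound-treated K562 or A673 cells, probes overlapping the exon junction, ΔΔCt versus housekeeping gene and DMSO control.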

K562 cells = test: Cell Titer Glo 2.0 cell viability assay in K562 cells; details: 72 hours
HiBiT-tagged MYB protein = test: HiBiT protein abundance assay, MYB (K562 HiBiT knock-in cells); assay type: cell-based, human; details: 24 hours
Summary of the method: as §1

Compound	IC50 (HiBiT-tagged HTT protein) [nM]	IC50 (Target C mRNA) [nM]	IC50 (HiBiT-tagged MYB protein) [nM]	Viability (K562 cells)
Cc1cn2cc(NC(=O)c3ccc(N4CCN(C)CC4)c4ccnnc34)cc(F)c2n1 [Compound 127]	1000 to 10000	1000 to 10000	100 to 1000	C (C represents 1000-9999 nM)
Cc1cn2cc(NC(=O)c3ccc(N4C[C@@H](C)N[C@@H](C)C4)c4ccnnc34)nc(C)c2n1 [Compound 172, N-{2,8-dimethylimidazo[1,2-a]pyrazin-6-yl}-5-[(3R,5S)-3,5-dimethylpiperazin-1-yl]cinnoline-8-carboxamide]	> 10000	1000 to 10000	< 100	B (B represents 100-1000 nM)
COc1cc(NC(=O)c2ccc(N3CCNCC3)c3ccnnc23)cn2cc(C)nc12 [Compound 176, N-{8-methoxy-2-methylimidazo[1,2-a]pyridin-6-yl}-5-(piperazin-1-yl)cinnoline-8-carboxamide trifluoroacetate]	1000 to 10000	> 10000	100 to 1000	B (B represents 100-1000 nM)
Cc1cn2cc(NC(=O)c3ccc(N4CCN5CCC[C@H]5C4)c4ccnnc34)cc(F)c2n1 [Compound 154]	1000 to 10000	1000 to 10000	< 100	B (B represents 100-1000 nM)
Cc1cn2cc(NC(=O)c3ccc(C4CCN(C)CC4)c4ccnnc34)cc(F)c2n1 [Compound 140]	100 to 1000	> 10000	< 100	B (B represents 100-1000 nM)
Cc1cn2cc(NC(=O)c3ccc(N4CCC(N(C)C)C4)c4ccnnc34)cc(F)c2n1 (stereo not drawn) [Compound 134]	1000 to 10000	1000 to 10000	< 100	B (B represents 100-1000 nM)
CC[C@H]1CN(c2ccc(C(=O)Nc3cc(F)c4nc(C)cn4c3)c3nnccc23)CCN1 [Compound 152]	1000 to 10000	> 10000	< 100	B (B represents 100-1000 nM)
CCC1CN(c2ccc(C(=O)Nc3cc(F)c4nc(C)cn4c3)c3nnccc23)CCN1 (stereo not drawn) [Compound 130]	1000 to 10000		< 100	B (B represents 100-1000 nM)
Cc1cn2cc(NC(=O)c3ccc(N4CCN(C)[C@H](C)C4)c4ccnnc34)cc(F)c2n1 [Compound 149]	1000 to 10000	1000 to 10000	< 100	B (B represents 100-1000 nM)
Cc1cn2cc(NC(=O)c3ccc(N4CCC(NC(C)(C)C)CC4)c4ccnnc34)cc(F)c2n1 [Compound 138]	1000 to 10000	1000 to 10000	100 to 1000	C (C represents 1000-9999 nM)
Cc1cn2cc(NC(=O)c3ccc(N4CC5(CNC5)C4)c4ccnnc34)cc(F)c2n1 [Compound 131]	100 to 1000	1000 to 10000	< 100	B (B represents 100-1000 nM)
COc1cc2c(N3CCNCC3)ccc(C(=O)Nc3cc(F)c4nc(C)cn4c3)c2nn1 [Compound 183, N-{8-fluoro-2-methylimidazo[1,2-a]pyridin-6-yl}-3-methoxy-5-(piperazin-1-yl)cinnoline-8-carboxamide]	100 to 1000	> 10000	< 100	B (B represents 100-1000 nM)
Cc1cn2cc(NC(=O)c3ccc(N4CCC5(CCN5)CC4)c4nccnc34)cc(F)c2n1 [Compound 189, 8-{1,7-diazaspiro[3.5]nonan-7-yl}-N-{8-fluoro-2-methylimidazo[1,2-a]pyridin-6-yl}quinoxaline-5-carboxamide]	100 to 1000	1000 to 10000	< 100	B (B represents 100-1000 nM)
Cc1cn2cc(NC(=O)c3ccc(N4CCNC5(CC5)C4)c4ccnnc34)cc(F)c2n1 [Compound 105]	1000 to 10000	> 10000	100 to 1000	B (B represents 100-1000 nM)
Cc1nc(NC(=O)c2ccc(N3CCNCC3)c3ccnnc23)cc2cn(C)nc12 [Compound 178, N-{2,7-dimethylpyrazolo[3,4-c]pyridin-5-yl}-5-(piperazin-1-yl)cinnoline-8-carboxamide]	1000 to 10000	> 10000	100 to 1000	C (C represents 1000-9999 nM)
Cc1cn2nc(NC(=O)c3ccc(N4CCNCC4)c4ccnnc34)cc(C)c2n1 [Compound 100]	100 to 1000	100 to 1000	100 to 1000	B (B represents 100-1000 nM)
Cc1cn2cc(NC(=O)c3ccc(N4C[C@@H](C)N[C@@H](C)C4)c4ccnnc34)cc(F)c2n1 [Compound 161, 5-(3,5-dimethylpiperazin-1-yl)-N-{8-fluoro-2-methylimidazo[1,2-a]pyridin-6-yl}cinnoline-8-carboxamide 2,2,2-trifluoroacetate]	1000 to 10000	1000 to 10000	< 100	B (B represents 100-1000 nM)
Cc1cn2cc(NC(=O)c3ccc(N4CCN(C)[C@@H](C)C4)c4ccnnc34)cc(F)c2n1 [Compound 150]	1000 to 10000	1000 to 10000	100 to 1000	B (B represents 100-1000 nM)
O=C(Nc1cn[nH]c1)c1ccc(N2CCNCC2)c2ccnnc12 [Compound 126]	> 10000	> 10000	> 10000	
Cc1cn2cc(NC(=O)c3ccc(N(C)[C@@H]4C[C@H]5CC[C@@H](C4)N5)c4ccnnc34)cc(F)c2n1 [Compound 156]	> 10000	> 10000	1000 to 10000	
Cc1cn2cc(NC(=O)c3ccc(N4C[C@@H](C)N[C@@H](C)C4)c4nccnc34)cc(F)c2n1 [Compound 186, 8-(3,5-dimethylpiperazin-1-yl)-N-{8-fluoro-2-methylimidazo[1,2-a]pyridin-6-yl}quinoxaline-5-carboxamide]	1000 to 10000	> 10000	< 100	
Cc1cn2cc(NC(=O)c3ccc(N4C[C@H]5CC[C@@H](C4)N5)c4ccnnc34)cc(F)c2n1 [Compound 108]	1000 to 10000	1000 to 10000	100 to 1000	

Continued, in another order:

IC50 (HiBiT-tagged HTT protein) [nM]	IC50 (Target C mRNA) [nM]	IC50 (HiBiT-tagged MYB protein) [nM]	Compound	Viability (K562 cells)
100 to 1000	100 to 1000	< 100	COc1cnc2c(N3C[C@@H](C)N[C@@H](C)C3)ccc(C(=O)Nc3cc(F)c4nc(C)cn4c3)c2n1 [Compound 205, 8-[(3R,5S)-3,5-dimethylpiperazin-1-yl]-N-{8-fluoro-2-methylimidazo[1,2-a]pyridin-6-yl}-3-methoxyquinoxaline-5-carboxamide; trifluoroacetic acid]	B (B represents 100-1000 nM)
1000 to 10000	> 10000	100 to 1000	Cc1cn2cc(NC(=O)c3ccc(N4CCNC5(CCOC5)C4)c4nccnc34)cc(F)c2n1 (stereo not drawn) [Compound 373]	B (B represents 100-1000 nM)
1000 to 10000	> 10000	100 to 1000	Cc1cn2cc(NC(=O)c3ccc(N4C[C@@H](C)NC5(CC5)C4)c4nccnc34)cc(F)c2n1 [Compound 376]	B (B represents 100-1000 nM)
100 to 1000	> 10000	< 100	Cc1cnc2c(N3CCNCC3)ccc(C(=O)Nc3cc(F)c4nc(C)cn4c3)c2n1 [Compound 197, N-{8-fluoro-2-methylimidazo[1,2-a]pyridin-6-yl}-3-methyl-8-(piperazin-1-yl)quinoxaline-5-carboxamide; trifluoroacetic acid]	C (C represents 1000-9999 nM)
1000 to 10000	1000 to 10000	< 100	CN[C@H]1CCN(c2ccc(C(=O)Nc3cc(F)c4nc(C)cn4c3)c3nccnc23)C1 (single isomer, unassigned) [Compound 194, N-{8-fluoro-2-methylimidazo[1,2-a]pyridin-6-yl}-8-[3-(methylamino)pyrrolidin-1-yl]quinoxaline-5-carboxamide]	A (A represents <100 nM)
1000 to 10000	1000 to 10000	< 100	Cc1cn2cc(NC(=O)c3ccc(N4CCNC(C)(C)C4)c4nccnc34)cc(F)c2n1 [Compound 220, 8-(3,3-dimethylpiperazin-1-yl)-N-{8-fluoro-2-methylimidazo[1,2-a]pyridin-6-yl}quinoxaline-5-carboxamide]	A (A represents <100 nM)
1000 to 10000	> 10000	100 to 1000	Cc1cn2cc(NC(=O)c3ccc(N4C[C@H](C)NC5(CC5)C4)c4nccnc34)cc(F)c2n1 [Compound 377]	B (B represents 100-1000 nM)
1000 to 10000	1000 to 10000	1000 to 10000	CNCC1CCN(c2ccc(C(=O)Nc3cc(F)c4nc(C)cn4c3)c3nccnc23)CC1 [Compound 192, N-{8-fluoro-2-methylimidazo[1,2-a]pyridin-6-yl}-8-{4-[(methylamino)methyl]piperidin-1-yl}quinoxaline-5-carboxamide trifluoroacetate]	C (C represents 1000-9999 nM)
1000 to 10000	1000 to 10000	100 to 1000	CCNC1CCN(c2ccc(C(=O)Nc3cc(F)c4nc(C)sc4c3)c3nnccc23)CC1 [Compound 221, 5-[4-(ethylamino)piperidin-1-yl]-N-(4-fluoro-2-methyl-1,3-benzothiazol-6-yl)cinnoline-8-carboxamide]	B (B represents 100-1000 nM)
100 to 1000	100 to 1000	< 100	COc1cnc2c(C(=O)Nc3cc(F)c4nc(C)cn4c3)ccc(N3C[C@@H](C)N[C@@H](C)C3)c2n1 [Compound 223]	B (B represents 100-1000 nM)
